From publication PMC8453481, “OFF-State-Specific Inhibition of the Proprotein Convertase Furin” (ACS Chemical Biology, 2021)
Where two headings read alike, the source gives them in different places.

How the values were obtained:
human furin [1] = target: T1, human furin (Homo sapiens, UniProt P09958); experiment: Enzyme kinetics with fluorogenic substrate pyr-ERTKR-AMC, furin; assay type: biochemical; details: pH 7.0, 37 °C; for Ki: competitive inhibition model, constant inhibitor concentration, substrate dilution series, triplicate
T1 construct: made in house; host or cells: HEK293S cells, stably transfected (pCDNA3.1(+)), purified from conditioned medium
Experimental: (§1) HEK293S cells were stably transfected with the coding sequences of human furin,[20] PC5/6 (Arg33-Gly634, UNP[41] Q92824) and PC7 (Pro44-Thr667, UNP[41] Q16549) cloned into the pCDNA3.1(+) vector (ThermoFisher). Cells were grown in DMEM (4.5 g L^–1 glucose, 2 mM L-glutamine, 110 mg l^–1 sodium pyruvate, 3.7 g L^–1 NaHCO3, nonessential amino acids) supplemented with 10% (v/v) FBS. Polyclonal selection of stable cell lines was conducted in the presence of 500 μg mL^–1 G418 (Geneticin). The cells were grown in multilayer flasks (HyperFlask M, Corning) without G418 for large-scale protein expression. The medium of confluent expression cultures was exchanged with DMEM supplemented with 2 mM sodium butyrate as well as with FBS (2% (v/v), furin) or without FBS (PC5/6 and PC7). The medium exchange was repeated five (furin) or two (PC5/6 and PC7) times, and the centrifuged medium (20 min, 5500 g, 4 °C) was stored at −80 °C until further use.
(§2) The purification of human furin from a conditioned medium has been shown previously.[20] […]
(§3) Enzyme kinetic measurements were performed in 100 mM HEPES/NaOH, at pH 7.0, 2 mM CaCl2, and 0.2% (v/v) Triton X 100 with the fluorogenic substrate pyr-ERTKR-7-amino-4-methylcoumarin (Bachem) at 37 °C. The 100 μL reactions were prepared in 96-well black half-area plates (Corning), preincubated for 15 min at 37 °C and measured in a 96-well plate reader (Tecan infinite 200) at excitation and emission wavelengths of 380 and 460 nm. […] The KM values were determined with 1:2 dilution series of the substrate in the absence of an inhibitor (4.7 ± 0.4 μM for furin, 2.5 ± 0.2 μM for PC5/6, and 19.3 ± 0.8 μM for PC7; Figure S7). Enzyme kinetic data were evaluated with GRAPHPAD PRISM (GraphPad Software) using the prebuild “Michaelis–Menten” model to calculate KM and a competitive inhibition model (v = Vmax × S/[S + KM(1 + I/Ki)]; v = reaction velocity, Vmax = maximum velocity, S = substrate concentration, KM = Michaelis–Menten constant, Ki = inhibition constant) for Ki determination. […]

PC7 = target: T2, PC7 (Homo sapiens, UniProt Q16549); experiment: Enzyme kinetics with fluorogenic substrate pyr-ERTKR-AMC, PC7; assay type: biochemical; details: for potency loss / increase of the Ki for PC7 compared with furin: Ki PC7 versus Ki furin; for Ki: competitive inhibition model, constant inhibitor concentration, substrate dilution series, triplicate
T2 construct: PC7 (Pro44-Thr667, UNP[41] Q16549); made in house
T2 sequence (Q16549 142-667 limits assumed): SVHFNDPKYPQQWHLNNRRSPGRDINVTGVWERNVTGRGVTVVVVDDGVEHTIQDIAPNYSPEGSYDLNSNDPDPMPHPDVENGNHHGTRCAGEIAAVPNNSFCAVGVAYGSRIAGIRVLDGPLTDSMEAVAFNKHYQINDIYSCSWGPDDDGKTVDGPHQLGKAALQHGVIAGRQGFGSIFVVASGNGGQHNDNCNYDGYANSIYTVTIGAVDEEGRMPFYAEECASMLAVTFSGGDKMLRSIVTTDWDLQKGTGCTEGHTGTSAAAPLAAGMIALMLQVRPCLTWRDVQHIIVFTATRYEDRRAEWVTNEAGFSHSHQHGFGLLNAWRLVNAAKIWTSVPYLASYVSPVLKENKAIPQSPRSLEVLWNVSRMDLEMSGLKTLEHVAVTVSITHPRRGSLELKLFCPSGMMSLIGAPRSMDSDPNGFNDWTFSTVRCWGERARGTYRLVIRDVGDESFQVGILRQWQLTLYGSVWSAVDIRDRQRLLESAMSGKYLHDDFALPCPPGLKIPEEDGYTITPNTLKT
Experimental: as §1
The purification of human furin from a conditioned medium has been shown previously.[20] PC5/6 and PC7 were purified by immobilized metal affinity chromatography and gel permeation chromatography (GPC), as shown for furin but excluding the inhibitor affinity purification step.[20] PC7 (50 μg mL^–1) was fully activated in 50 mM Tris/HCl, at pH 7.5, 10 mM CaCl2, and 0.15 M NaCl, at pH 7.5, in the presence of 2.0 μg mL^–1 thermolysin for 16 h at 37 °C. To remove thermolysin, the reaction mixture was concentrated in an ultrafiltration device (30 kDa cutoff, amicon, Millipore) and subjected to GPC (both steps at 4 °C). Purified PC5/6 and PC7 were stored at −20 °C.
Enzyme kinetic measurements were performed in 100 mM HEPES/NaOH, at pH 7.0, 2 mM CaCl2, and 0.2% (v/v) Triton X 100 with the fluorogenic substrate pyr-ERTKR-7-amino-4-methylcoumarin (Bachem) at 37 °C. The 100 μL reactions were prepared in 96-well black half-area plates (Corning), preincubated for 15 min at 37 °C and measured in a 96-well plate reader (Tecan infinite 200) at excitation and emission wavelengths of 380 and 460 nm. Because of the autofluorescence of inhibitor 1, the Ki values were determined at constant inhibitor concentrations (1: 20 μM for furin, 15 μM for PC5/6 and 50 μM for PC7; 2: 10 μM for furin, 5 μM for PC5/6 and 15 μM for PC7) and 1:2 dilution series of the substrate (Figure S7). The KM values were determined with 1:2 dilution series of the substrate in the absence of an inhibitor (4.7 ± 0.4 μM for furin, 2.5 ± 0.2 μM for PC5/6, and 19.3 ± 0.8 μM for PC7; Figure S7). Enzyme kinetic data were evaluated with GRAPHPAD PRISM (GraphPad Software) using the prebuild “Michaelis–Menten” model to calculate KM and a competitive inhibition model (v = Vmax × S/[S + KM(1 + I/Ki)]; v = reaction velocity, Vmax = maximum velocity, S = substrate concentration, KM = Michaelis–Menten constant, Ki = inhibition constant) for Ki determination. All measurements were performed in triplicate.

PC5/6 = target: T3, PC5/6 (Homo sapiens, UniProt Q92824); experiment: Enzyme kinetics with fluorogenic substrate pyr-ERTKR-AMC, PC5/6; assay type: biochemical; details: pH 7.0, 37 °C; for Ki: competitive inhibition model, constant inhibitor concentration, substrate dilution series, triplicate
T3 construct: PC5/6 (Arg33-Gly634, UNP[41] Q92824); made in house; host or cells: HEK293S cells, stably transfected (pCDNA3.1(+)), purified from conditioned medium
T3 sequence (Q92824 33-634): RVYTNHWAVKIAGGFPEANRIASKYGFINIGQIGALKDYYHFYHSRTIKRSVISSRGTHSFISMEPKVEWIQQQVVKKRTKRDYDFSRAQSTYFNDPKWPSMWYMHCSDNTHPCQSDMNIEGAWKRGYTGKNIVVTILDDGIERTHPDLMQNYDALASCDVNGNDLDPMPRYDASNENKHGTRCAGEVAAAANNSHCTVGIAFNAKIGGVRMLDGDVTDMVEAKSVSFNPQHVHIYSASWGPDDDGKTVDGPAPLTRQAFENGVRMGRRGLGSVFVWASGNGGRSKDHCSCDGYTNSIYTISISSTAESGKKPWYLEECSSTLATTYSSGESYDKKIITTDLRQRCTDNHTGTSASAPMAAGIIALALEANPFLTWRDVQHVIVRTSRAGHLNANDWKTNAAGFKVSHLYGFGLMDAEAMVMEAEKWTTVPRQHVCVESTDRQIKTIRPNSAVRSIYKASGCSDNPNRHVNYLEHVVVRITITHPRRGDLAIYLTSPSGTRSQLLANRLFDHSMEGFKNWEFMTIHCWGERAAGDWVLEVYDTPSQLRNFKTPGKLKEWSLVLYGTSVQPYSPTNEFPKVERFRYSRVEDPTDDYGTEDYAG
Experimental: as §1, §2, §3

human furin [2] = target: T1, human furin; experiment: Crystallography-based inhibitor titration of furin crystals (occupancy refinement); assay type: binding
Experimental: Because of the lower number of specific interactions, we assumed that the binding affinity of 2 for the S4 pocket is lower as compared to the S1 pocket. […] The strength of the electron density directly correlates to the occupation of the binding sites with the inhibitor. Indeed, we found the S1 pocket already occupied by 2 at 0.4 mM as indicated by the occupancy of 75% from crystallographic refinement (Table S2). […] The refined occupancy of inhibitor 2 at the S1 pocket at 40 mM concentration was 0.94. It should be noted that water molecules occupy the substrate binding pockets in absence of any ligand.[22] The binding sites of these water molecules overlap with the binding sites of the inhibitors and affect crystallographic occupancy refinement. Thus, the refined occupation should always be considered in context with the electron density (Figure 6C–E). […] We also observed a third binding site of 2 and 3 outside of the substrate binding cleft. Here, two inhibitor molecules are stacked between two arginine residues of a crystal contact. This binding mode is specific for the crystal lattice and thus is not expected to occur in solution (Figure S5B, D).
The optimized soaking solutions contained either 1.0 M NaCl, 200 mM Mes/NaOH, at pH 5.5, 10% (w/v) PEG8000, and 20% (v/v) DMSO or 0.25 M NaCl, 200 mM Mes/NaOH, at pH 5.5, 20% (w/v) PEG8000, and 20% (v/v) DMSO and were supplemented with the specific inhibitors. Inhibitors 1 and 2 were soaked at 20 mM concentration in 1 M NaCl containing soaking solution for 0.5 h. Inhibitor 3 and 4 were soaked in 0.25 M NaCl containing soaking solution for 0.5 h at an inhibitor concentration of 100 mM and 20 mM, respectively. For the inhibitor titration experiments with 2, 40 mM, 4 mM, or 0.4 mM of the inhibitor was soaked for 0.5 h in 0.25 M NaCl-containing soaking solution. Soaked crystals were flash cooled in liquid N2. Diffraction data collection was performed at the synchrotron beamline BL14.2[33] (BESSY-II) of Helmholtz-Zentrum Berlin (HZB). The data were processed using XDS[34] with XDS-APP[35] (v2.0) and the CCP4 program suite[36] (v.7.1.001). COOT[37] (v.0.8.9.2) was used for model building. Refinement was performed in PHENIX[38] (v1.18.2) using the PDB ID 5JXG([22]) as an initial model. One specific Rfree-set (initially generated up to 1.0 Å, ref ([22])) was transferred to the data sets prior refinement start. Geometry restraints of the inhibitors were obtained from the PRODRG server[39] and from the GRADE Web server (http://grade.globalphasing.org). All guanylhydrazones were modeled in the E configuration, which is in agreement with previous studies with model compounds.[40] Electron density omit maps were calculated in PHENIX[38] (v1.18.2). PYMOL was used for molecular graphics (http://www.pymol.org) and structural alignments. In the case of inhibitor titration experiments with 2, the structure was first built and refined for a crystal soaked at 40 mM. This structure was used to calculate refinements with (for occupancy calculation) and without (for omit map calculation) an inhibitor in the model for three additional crystals independently soaked at 40 mM, 4 mM, and 0.4 mM (Table S2) obtaining R/Rfree-values of 17.3/19.0, 17.5/19.1, and 17.7/19.3, respectively. The occupancy refinement yielded consistent B-factors between the three differently soaked structures (Table S2). Structure factors and coordinates of the complexes of furin with inhibitors 1, 2, at 1 M NaCl; 2 at 0.25 M NaCl; and 3 and 4 have been deposited as PDB entries 7O1U, 7O1W, 7O1Y, 7O20, and 7O22, respectively.

[3] = ref 29; cited from earlier work
furin = details: read-out: Ki furin (reported), cited from earlier work
[4] = 0.4 mM inhibitor, 0.25 M NaCl soak
[5] = 0.4 mM inhibitor, 0.25 M NaCl soak, * very weak electron density
[6] = 4 mM inhibitor, 0.25 M NaCl soak
[7] = 40 mM inhibitor, 0.25 M NaCl soak
[8] = absence of inhibitor, 1:2 dilution series of the substrate

T1 sequence (P09958 108-574 limits assumed): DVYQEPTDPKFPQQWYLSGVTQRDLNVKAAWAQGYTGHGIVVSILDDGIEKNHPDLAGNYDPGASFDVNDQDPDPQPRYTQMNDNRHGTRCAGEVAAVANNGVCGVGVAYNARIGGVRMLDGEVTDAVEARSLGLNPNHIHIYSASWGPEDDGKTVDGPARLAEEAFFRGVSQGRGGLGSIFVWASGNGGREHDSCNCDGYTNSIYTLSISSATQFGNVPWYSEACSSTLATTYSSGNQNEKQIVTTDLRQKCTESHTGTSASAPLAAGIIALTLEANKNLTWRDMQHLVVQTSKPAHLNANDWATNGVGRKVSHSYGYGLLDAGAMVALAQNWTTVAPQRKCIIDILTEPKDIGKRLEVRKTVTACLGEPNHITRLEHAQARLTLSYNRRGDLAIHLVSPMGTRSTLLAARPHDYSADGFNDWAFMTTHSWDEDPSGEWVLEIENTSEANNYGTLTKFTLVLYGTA

N=C(N)N/N=C/c1ccc(/C=N/NC(=N)N)cc1 [inhibitor 2]
Ki (human furin [1]): 3.1 ± 0.2 µM | potency loss / increase of the Ki for PC7 compared with furin (PC7): ~3 fold | Ki (PC7; pH 7.0, 37 °C): 10.4 ± 0.7 µM | Ki (PC5/6): 1.7 ± 0.2 µM | occupancy at S1 pocket (human furin [2]; [4]): 75% | refined occupancy, molecule 1, S1 pocket (human furin [2]; [4]): 0.75 | refined occupancy, molecule 2, S4 pocket (human furin [2]; [5]): 0.39 | refined occupancy, molecule 3, crystal contact site (human furin [2]; [5]): 0.35 | occupancy at S4 pocket (human furin [2]; [6]): 63% | refined occupancy, molecule 1, S1 pocket (human furin [2]; [6]): 0.87 | refined occupancy, molecule 2, S4 pocket (human furin [2]; [6]): 0.63 | refined occupancy, molecule 3, crystal contact site (human furin [2]; 4 mM inhibitor, 0.25 M NaCl soak, * very weak electron density): 0.38 | occupancy at S4 pocket (human furin [2]; [7]): 82% | refined occupancy, molecule 1, S1 pocket (human furin [2]; [7]): 0.94 | refined occupancy, molecule 2, S4 pocket (human furin [2]; [7]): 0.82 | refined occupancy, molecule 3, crystal contact site (human furin [2]; [7]): 0.66 | apparent dissociation constant at the S4 binding site (human furin [2]; estimated from inhibitor titration of crystals, 0.25 M NaCl): low millimolar range

N=C(N)N/N=C/c1c(Cl)cccc1Cl [guanabenz]
pKa [3]: 8.1

pyr-ERTKR-7-amino-4-methylcoumarin [reference compound]
Km (human furin [1]; [8]): 4.7 ± 0.4 µM | Km (PC7; absence of inhibitor, 1:2 dilution series of the substrate, pH 7.0, 37 °C): 19.3 ± 0.8 µM | Km (PC5/6; [8]): 2.5 ± 0.2 µM

N=C(N)N/N=C/c1ccccc1OCc1ccc(Cl)cc1 [inhibitor 4]
Ki (furin; ref 24): 11.8 µM | Ki (furin; ref 26): 25.3 µM

C/C(=N\NC(=N)N)c1cc(N)cc(/C(C)=N/NC(=N)N)c1 [inhibitor 1]
Ki (human furin [1]): 3.3 ± 0.1 µM | potency loss / increase of the Ki for PC7 compared with furin (PC7): ~7 fold | Ki (PC7; pH 7.0, 37 °C): 22.4 ± 1.9 µM | Ki (PC5/6): 3.6 ± 0.2 µM

C/C(=N\NC(=N)N)c1ccccc1 [inhibitor 3]
Ki (furin; ref 26): 273 µM
